Data published in PubChem BioAssay AID1648 (Sanford-Burnham Center for Chemical Genomics, 2009).
The source made the active and inactive calls. How the calls were made is not given here.

Target: Serine/threonine-protein kinase mTOR (Homo sapiens) (UniProt P42345)
Test: mTOR FRB domain ligand binding – biophysical, NMR (AID 1648)
Details: NMR binding to FRB domain, chemical shift

Chain of Serine/threonine-protein kinase mTOR (Homo sapiens) (P42345 2015-2114): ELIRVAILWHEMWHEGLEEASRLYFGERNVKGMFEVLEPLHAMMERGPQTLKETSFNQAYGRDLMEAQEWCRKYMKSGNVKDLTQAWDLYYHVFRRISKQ

| SMILES | Kd |
| --- | --- |
| CSc1ccc(S(=O)(=O)N2CCCC2)cc1 | > 4 mM (inactive) |
| O=C(NC1=NCCS1)c1csc2ccccc12 | > 4 mM (inactive) |
| CC(C)NC(=O)Cc1c(O)c2ccccc2[nH]c1=O | > 4 mM (inactive) |
| COc1c2c(cc3c1OCO3)C13C=C[C@H](OC)CC1N(C2)CC3O (some centres not stated) | > 4 mM (inactive) |
| Cc1cc(=O)[nH]c2ccccc12 | > 4 mM (inactive) |
| CC(C)c1ccc2c(c1O)CC[C@H]1C3=C(CC[C@]21C)C(=O)OC3 | > 4 mM (inactive) |
| Cc1cc(C(=O)NCc2ccco2)cs1 | > 4 mM (inactive) |
| Cn1c(SCC(N)=O)nc2c1c(=O)[nH]c(=O)n2C | > 4 mM (inactive) |
| O=C(O)Cn1c(C(F)(F)F)nc2ccccc21 | > 4 mM (inactive) |
| Cc1occc1C(=O)N1CCC2(CC1)OCCO2 | > 4 mM (inactive) |
| CC(O)C(=O)N/N=C/c1cccs1 (configuration not stated) | > 4 mM (inactive) |
| CCCc1cc2c(c(NC(C)=O)n1)c(=O)oc1ccccc12 | > 4 mM (inactive) |
| O=C(Nc1nnc(-c2ccccc2Cl)o1)c1ccco1 | > 4 mM (inactive) |
| CCNS(=O)(=O)c1cc(Br)ccc1OC | > 4 mM (inactive) |
| Cc1cccc(N2C(=O)CCC2=O)n1 | > 4 mM (inactive) |
| NC(=O)c1ccc(C(N)=O)c(-c2ccccc2)c1 | > 4 mM (inactive) |
| Cn1nc(C(=O)N2CCOCC2)c2ccccc2c1=O | > 4 mM (inactive) |
| O=C(O)c1cn(-c2ccccc2)nc1-c1ccncc1 | > 4 mM (inactive) |
| Cn1c(=O)c2c(ncn2C)n(C)c1=O | > 4 mM (inactive) |
| CCc1ccccc1OCc1nnc(N)s1 | > 4 mM (inactive) |
| Nc1ccc(Cc2ccncc2)cc1 | > 4 mM (inactive) |
| Cc1cc(=O)[nH]c(N2CCN(Cc3ccccc3)CC2)n1 | > 4 mM (inactive) |
| NS(=O)(=O)c1ccc2c3c(cccc13)C(=O)N2 | > 4 mM (inactive) |
| COc1ccc([C@@H]2CC(=O)c3c(O)cc(O[C@@H]4O[C@H](CO[C@H]5O[C@@H](C)[C@H](O)[C@@H](O)[C@H]5O)[C@@H](O)[C@H](O)[C@H]4O)cc3O2)cc1O | > 4 mM (inactive) |

| SMILES | Kd |
| --- | --- |
| Cc1c(/C=N\n2cnnc2)c2ccccc2n1C | > 4 mM (inactive) |
| O=c1cc(-c2ccccc2)oc2cc(O)cc(O)c12 | > 4 mM (inactive) |
| CC1=C(CCC(=O)O)c2cc3nc(cc4[nH]c(cc5[nH]c(cc1n2)c(C)c5C(C)O)c(C)c4C(C)O)C(C)=C3CCC(=O)O (configuration not stated) | > 4 mM (inactive) |
| CC(C)=CCC1=C(O)c2ccccc2C(=O)C1=O | > 4 mM (inactive) |
| Nc1nc2ccc(N3CCOCC3)cc2s1 | > 4 mM (inactive) |
| O=S1(=O)CCC(Nc2ccccc2)C1 (configuration not stated) | > 4 mM (inactive) |
| NS(=O)(=O)c1ccccc1Cl | > 4 mM (inactive) |
| O=C1CSC2=NCCCN12 | > 4 mM (inactive) |
| N#C/C(=C\c1ccc[nH]1)S(=O)(=O)c1ccccc1 | > 4 mM (inactive) |
| c1ccc(Cc2nn3c(-c4ccncc4)nnc3s2)cc1 | > 4 mM (inactive) |
| Cc1cc2ncn(S(=O)(=O)N3CCOCC3)c2cc1C | > 4 mM (inactive) |
| CN(C)C1CCS(=O)(=O)C1 (configuration not stated) | > 4 mM (inactive) |
| CCc1cc(=O)[nH]c(SCC(=O)NCCOC)n1 | > 4 mM (inactive) |
| Cc1n[nH]c(=S)n(/N=C/c2cccs2)c1=O | > 4 mM (inactive) |
| CC1Cc2nc(SCC(N)=O)n(C)c(=O)c2S1 (configuration not stated) | > 4 mM (inactive) |
| O=C(Cc1c(F)cccc1Cl)Nc1cccnc1 | > 4 mM (inactive) |
| CCCNC(=O)CSc1nnc(C)s1 | > 4 mM (inactive) |
| O=C(Nc1ccccc1)NC1CCS(=O)(=O)C1 (configuration not stated) | > 4 mM (inactive) |
| COc1cc(OC)c2c(OC)c(-c3ccc4c(c3)OCO4)c(=O)oc2c1 | > 4 mM (inactive) |
| O=C(c1ccccc1)N1CCNCC1 | > 4 mM (inactive) |
| CCNC(=O)CC[C@H](N)C(=O)O | > 4 mM (inactive) |
| C(=Nn1cnnc1)c1ccccc1 | > 4 mM (inactive) |
| CN1C(=O)c2ccc(C(=O)NC3CCCCC3)cc2C1=O | > 4 mM (inactive) |
| NCc1ccccc1N1CCCCC1 | > 4 mM (inactive) |

| SMILES | Kd |
| --- | --- |
| NC(Cn1ccc(=O)c(O)c1)C(=O)O (configuration not stated) | > 4 mM (inactive) |
| CC(C)n1c(Nn2cnnc2)nc2ccccc21 | > 4 mM (inactive) |
| NCC(O)c1ccc(O)cc1 (configuration not stated) | > 4 mM (inactive) |
| CNS(=O)(=O)c1cc(OC)ccc1OC | > 4 mM (inactive) |
| O=C(O)c1cccnc1Oc1ccccc1 | > 4 mM (inactive) |
| CC(=O)Oc1cc(OC(C)=O)c2c(c1)O[C@H](c1ccc(OC(C)=O)c(OC(C)=O)c1)[C@H](OC(C)=O)C2 | > 4 mM (inactive) |
| CCOC(=O)c1c[nH]c2c(F)cccc2c1=O | > 4 mM (inactive) |
| CC(=O)Nc1nnc(-c2ccccn2)o1 | > 4 mM (inactive) |
| CC(=O)c1ccc(N2C(=O)C(C(C)C)NC2=S)cc1 (configuration not stated) | > 4 mM (inactive) |
| O=C(c1ccco1)N1CCN(Cc2cccc(F)c2)CC1 | > 4 mM (inactive) |
| CCC(=O)Oc1ccc(N2C(=O)CCC2=O)cc1 | > 4 mM (inactive) |
| O=S1(=O)NC(=NCc2ccccc2)c2ccccc21 | > 4 mM (inactive) |
| CCCS(=O)(=O)N1CCN(c2ccccn2)CC1 | > 4 mM (inactive) |
| COc1c2ccoc2cc2oc(=O)ccc12 | > 4 mM (inactive) |
| O=C1CC(=O)N(c2cccc(Cl)c2)N1 | > 4 mM (inactive) |
| O=C(O)c1cccc(-n2cccc2)c1 | > 4 mM (inactive) |
| CC(NC(=O)c1cccnc1)c1ccc2c(c1)OCO2 (configuration not stated) | > 4 mM (inactive) |
| O=C1CNC(=O)N1Cc1ccc(F)cc1 | > 4 mM (inactive) |
| COC1=CC(=O)C=C(OC)C1=O | > 4 mM (inactive) |
| Nc1ccccc1C(=O)N1CCOCC1 | > 4 mM (inactive) |
| COc1ccc(C(=O)O)cc1OC | > 4 mM (inactive) |
| O=c1[nH]cc(N=Cc2ccc(F)cc2)c(=O)[nH]1 | > 4 mM (inactive) |
| COc1ccc2ccc(=O)oc2c1CC=C(C)C | > 4 mM (inactive) |
| COc1ccc(-c2cn[nH]c2N)c(OC)c1 | > 4 mM (inactive) |

| SMILES | Kd |
| --- | --- |
| CC(=O)Oc1ccc(O)cc1 | > 4 mM (inactive) |
| C[C@@H]1CC[C@@]2(OC1)OC1CC3C4CC=C5C[C@@H](O)CC[C@]5(C)C4CC[C@]3(C)C1[C@@H]2C (some centres not stated) | > 4 mM (inactive) |
| OCc1ccc(N2CCOCC2)cc1 | > 4 mM (inactive) |
| O=C(O)Cn1cc(C(=O)C2CC2)c2ccccc21 | > 4 mM (inactive) |
| COC(=O)C[C@H]1C(C)(C)C(=O)[C@@H]2CC3=C4CC(=O)O[C@@H](c5ccoc5)[C@]4(C)CCC3C1(C)C2=O (some centres not stated) | > 4 mM (inactive) |
| CC(=O)O[C@@H]1CC2C(C)(C)C(=O)[C@@H]3O[C@@H]3[C@]2(C)C2CC[C@]3(C)C(=CC(=O)O[C@H]3c3ccoc3)[C@@]21C (some centres not stated) | > 4 mM (inactive) |
| S=c1[nH]c2cccnc2[nH]1 | > 4 mM (inactive) |
| CSc1ccccc1NC(=O)c1ccco1 | > 4 mM (inactive) |
| Cc1cc(=O)n2nc(-c3ccccc3)sc2n1 | > 4 mM (inactive) |
| CN1CCC(NC(=S)NC2CC2)CC1 | > 4 mM (inactive) |
| Nc1cncc(C(=O)O)c1 | > 4 mM (inactive) |
| NC(=S)N1CCC(c2ccccc2)=N1 | > 4 mM (inactive) |
| COC(=O)CCSCC(=O)Nc1nccs1 | > 4 mM (inactive) |
| CC(=O)c1cc2c(s1)SCC(=O)N2 | > 4 mM (inactive) |
| CC1=C(C(=O)Nc2ccccc2)SCCO1 | > 4 mM (inactive) |
| COc1ccc2c(c1)[nH]c1c(C)nccc12 | > 4 mM (inactive) |
| CC(C)c1ccc2c(c1)CCC1[C@](C)(CN)CCC[C@]21C (some centres not stated) | > 4 mM (inactive) |
| O=[N+]([O-])c1cccc(CN2CCC(O)CC2)c1 | > 4 mM (inactive) |
| COc1cc2c3cc1Oc1c(OC)c(OC)cc4c1[C@@H](Cc1cccc(c1)Oc1ccc(c(O)c1)C[C@@H]3N(C)CC2)N(C)CC4 | > 4 mM (inactive) |
| CS(=O)(=O)N/N=C/c1cccs1 | > 4 mM (inactive) |
| OCCNC(=S)Nc1ccc(F)cc1 | > 4 mM (inactive) |
| NC1=NC(=O)/C(=C/c2ccc(O)c(Cl)c2)S1 | > 4 mM (inactive) |
| COc1cccc(OC)c1C(=O)N1CCOCC1 | > 4 mM (inactive) |
| CCOC(=O)C1CCC(=O)c2cccn21 (configuration not stated) | > 4 mM (inactive) |

| SMILES | Kd |
| --- | --- |
| CC(N)C(=O)c1ccco1 (configuration not stated) | > 4 mM (inactive) |
| CCOC(=O)c1c(C)nc2sccn12 | > 4 mM (inactive) |
| Cn1[nH]c2nc3[nH]n(C)c(=O)c3c(-c3ccccc3)c2c1=O | > 4 mM (inactive) |
| CCSc1n[nH]c(=O)[nH]c1=O | > 4 mM (inactive) |
| O=C(Nc1cccc2cccnc12)c1cccnc1 | > 4 mM (inactive) |
| [O-][n+]1c2ccccc2[n+]([O-])c2cc(O)ccc21 | > 4 mM (inactive) |
| O=c1ccn([C@@H]2O[C@H](COP(=O)(O)OP(=O)(O)OP(=O)(O)O)[C@@H](O)[C@H]2O)c(=O)[nH]1 | > 4 mM (inactive) |
| Cc1ccc(N2C(=O)C3C4C=CC(O4)C3C2=O)cc1 (configuration not stated) | > 4 mM (inactive) |
| Nc1nc2[nH]c(=O)c(=O)[nH]c2c(=O)[nH]1 | > 4 mM (inactive) |
| COC(=O)CSc1nnc(-c2ccc(C(=O)O)cc2)o1 | > 4 mM (inactive) |
| Cc1nc(NC2=NCCC(=O)N2)nc2ccccc12 | > 4 mM (inactive) |
| Nc1ccc2[nH]ncc2c1 | > 4 mM (inactive) |
| COc1cc(C)c(S(=O)(=O)N2CCN(C)CC2)cc1C | > 4 mM (inactive) |
| Cc1cc(=O)cc(C)n1-c1ccccc1N1CCOCC1 | > 4 mM (inactive) |
| O=C(CCc1ccc(O)cc1)c1c(O)cc(O)cc1O[C@@H]1O[C@H](CO)[C@@H](O)[C@H](O)[C@H]1O | > 4 mM (inactive) |
| CC1=CC(=O)C2C(C)(C)CCC[C@]2(C)[C@@]1(O)CCc1ccoc1 (some centres not stated) | > 4 mM (inactive) |
| CNc1nnc(Cc2csc(N)n2)s1 | > 4 mM (inactive) |
| O=C(Nc1ccon1)c1ccc2c(c1)OCO2 | > 4 mM (inactive) |
| CC(=O)c1c(O)c(C)c(O)c2c1OC1=CC(=O)C(C(C)=O)C(=O)C12C (configuration not stated) | > 4 mM (inactive) |
| O=C1NCC(=O)N2CCc3ccccc3C12 (configuration not stated) | > 4 mM (inactive) |
| Cc1cc(F)c(F)c(C(=O)NC2CC2)c1Cl | > 4 mM (inactive) |
